# Results reported in PubChem BioAssay AID180 (DTP/NCI, 2004).
# Several values for one entry are separate records, joined by “and”; a condition that tells them apart may be missing. Identical values can stand only once.
# System: BDF1 mice, Adenocarcinoma 755 s.c., tumor weight T/C
# Assay: NCI In Vivo Anticancer Drug Screen. Data for tumor model Adenocarcinoma 755 (subcutaneous) in B6D2F1 (BDF1) mice
# Conditions: endpoint: mean tumor weight, higher = larger tumour
# Procedure: The antitumor activity of compounds was measured in mice bearing transplantable tumors. Survival or tumor size were measured and the results are expressed as the measurement made in the treated group (T) divided by the measurement made in the vehicle treated control group (C). The tumor model used in this assay is Adenocarcinoma 755 (subcutaneous) in B6D2F1 (BDF1) mice
# [1] = dose: 62.5 mg/kg/injection, schedule: Q01DX011 (ip), vehicle: saline
# [2] = dose: 125.0 mg/kg/injection, schedule: Q01DX011 (ip), vehicle: saline
# [3] = dose: 250.0 mg/kg/injection, schedule: Q01DX011 (ip), vehicle: saline
structure (smiles),measurement,setting,value
Nc1c(Br)cc2c(c1Br)Cc1cc(Br)ccc1-2,T/C,"dose: 3.75 mg/kg/injection, schedule: Q#A X022 (ip), vehicle: saline",77 % of control
same,T/C,"dose: 7.5 mg/kg/injection, schedule: Q#A X022 (ip), vehicle: saline",50 % of control
same,T/C,"dose: 15.0 mg/kg/injection, schedule: Q01DX011 (im), vehicle: saline",46 % of control
same,T/C,"dose: 15.0 mg/kg/injection, schedule: Q01DX011 (sc), vehicle: saline",58 % of control
same,T/C,"dose: 15.0 mg/kg/injection, schedule: Q#A X022 (ip), vehicle: saline",40 % of control
same,T/C,"dose: 15.5 mg/kg/injection, schedule: Q01DX011 (ip), vehicle: saline",74 % of control
same,T/C,"dose: 21.8 mg/kg/injection, schedule: Q01DX011 (ip), vehicle: saline",59 % of control and 69 % of control
same,T/C,"dose: 30.0 mg/kg/injection, schedule: Q01DX011 (im), vehicle: saline",48 % of control
same,T/C,"dose: 30.0 mg/kg/injection, schedule: Q01DX011 (sc), vehicle: saline",52 % of control
same,T/C,"dose: 30.0 mg/kg/injection, schedule: Q#A X022 (ip), vehicle: saline",40 % of control
same,T/C,"dose: 31.2 mg/kg/injection, schedule: Q01DX011 (ip), vehicle: saline",75 % of control
same,T/C,"dose: 43.7 mg/kg/injection, schedule: Q01DX011 (ip), vehicle: saline",18 % of control and 36 % of control
same,T/C,"dose: 45.0 mg/kg/injection, schedule: Q03DX004 (ip), vehicle: saline",67 % of control
same,T/C,"dose: 60.0 mg/kg/injection, schedule: Q01DX011 (im), vehicle: saline",40 % of control
same,T/C,"dose: 60.0 mg/kg/injection, schedule: Q01DX011 (ip), vehicle: saline",24 % of control
same,T/C,"dose: 60.0 mg/kg/injection, schedule: Q01DX011 (sc), vehicle: saline",41 % of control
same,T/C,"dose: 60.0 mg/kg/injection, schedule: Q#A X022 (ip), vehicle: saline",28 % of control
same,T/C,[1],63 % of control
same,T/C,"dose: 87.5 mg/kg/injection, schedule: Q01DX011 (ip), vehicle: saline",33 % of control and 35 % of control
same,T/C,"dose: 90.0 mg/kg/injection, schedule: Q03DX004 (ip), vehicle: saline",66 % of control
same,T/C,"dose: 100.0 mg/kg/injection, schedule: Q01DX001 (ip), vehicle: saline",80 % of control and 87 % of control
same,T/C,"dose: 100.0 mg/kg/injection, schedule: Q07DX002 (ip), vehicle: saline",78 % of control
same,T/C,"dose: 120.0 mg/kg/injection, schedule: Q01DX001 (ip), vehicle: saline",56 % of control
same,T/C,"dose: 120.0 mg/kg/injection, schedule: Q01DX011 (im), vehicle: saline",45 % of control
same,T/C,"dose: 120.0 mg/kg/injection, schedule: Q01DX011 (ip), vehicle: saline",17 % of control
same,T/C,"dose: 120.0 mg/kg/injection, schedule: Q01DX011 (oral), vehicle: saline",26 % of control
same,T/C,"dose: 120.0 mg/kg/injection, schedule: Q01DX011 (sc), vehicle: saline",46 % of control
same,T/C,"dose: 120.0 mg/kg/injection, schedule: Q#A X022 (ip), vehicle: saline",34 % of control
same,T/C,[2],36 % of control
same,T/C,"dose: 125.0 mg/kg/injection, schedule: Q01DX011 (oral), vehicle: saline",74 % of control
same,T/C,"dose: 175.0 mg/kg/injection, schedule: Q01DX011 (ip), vehicle: other",33 % of control
same,T/C,"dose: 175.0 mg/kg/injection, schedule: Q01DX011 (ip), vehicle: saline",27 % of control and 33 % of control
same,T/C,"dose: 180.0 mg/kg/injection, schedule: Q03DX004 (ip), vehicle: saline",58 % of control
same,T/C,"dose: 200.0 mg/kg/injection, schedule: Q01DX001 (ip), vehicle: saline",74 % of control and 75 % of control
same,T/C,"dose: 200.0 mg/kg/injection, schedule: Q07DX002 (ip), vehicle: saline",71 % of control
same,T/C,"dose: 240.0 mg/kg/injection, schedule: Q01DX001 (ip), vehicle: saline",44 % of control
same,T/C,"dose: 240.0 mg/kg/injection, schedule: Q01DX011 (ip), vehicle: saline",16 % of control
same,T/C,"dose: 240.0 mg/kg/injection, schedule: Q01DX011 (oral), vehicle: saline",23 % of control
same,T/C,[3],52 % of control
same,T/C,"dose: 250.0 mg/kg/injection, schedule: Q01DX011 (oral), vehicle: saline",64 % of control
same,T/C,"dose: 350.0 mg/kg/injection, schedule: Q01DX011 (ip), vehicle: other",16 % of control
same,T/C,"dose: 360.0 mg/kg/injection, schedule: Q03DX004 (ip), vehicle: saline",54 % of control
same,T/C,"dose: 400.0 mg/kg/injection, schedule: Q01DX001 (ip), vehicle: saline",54 % of control and 65 % of control
same,T/C,"dose: 400.0 mg/kg/injection, schedule: Q07DX002 (ip), vehicle: saline",51 % of control
same,T/C,"dose: 480.0 mg/kg/injection, schedule: Q01DX001 (ip), vehicle: saline",26 % of control
same,T/C,"dose: 480.0 mg/kg/injection, schedule: Q01DX011 (im), vehicle: saline",33 % of control
same,T/C,"dose: 480.0 mg/kg/injection, schedule: Q01DX011 (ip), vehicle: saline",16 % of control
same,T/C,"dose: 480.0 mg/kg/injection, schedule: Q01DX011 (oral), vehicle: saline",24 % of control
same,T/C,"dose: 480.0 mg/kg/injection, schedule: Q01DX011 (sc), vehicle: saline",30 % of control
same,T/C,"dose: 500.0 mg/kg/injection, schedule: Q01DX011 (ip), vehicle: saline",58 % of control
same,T/C,"dose: 500.0 mg/kg/injection, schedule: Q01DX011 (oral), vehicle: saline",57 % of control
same,T/C,"dose: 700.0 mg/kg/injection, schedule: Q01DX011 (ip), vehicle: other",34 % of control
same,T/C,"dose: 720.0 mg/kg/injection, schedule: Q03DX004 (ip), vehicle: saline",24 % of control
same,T/C,"dose: 800.0 mg/kg/injection, schedule: Q01DX001 (ip), vehicle: saline",60 % of control and 80 % of control
same,T/C,"dose: 800.0 mg/kg/injection, schedule: Q07DX002 (ip), vehicle: saline",51 % of control
same,T/C,"dose: 960.0 mg/kg/injection, schedule: Q01DX001 (ip), vehicle: saline",31 % of control
same,T/C,"dose: 960.0 mg/kg/injection, schedule: Q01DX011 (im), vehicle: saline",29 % of control
same,T/C,"dose: 960.0 mg/kg/injection, schedule: Q01DX011 (oral), vehicle: saline",25 % of control
same,T/C,"dose: 960.0 mg/kg/injection, schedule: Q01DX011 (sc), vehicle: saline",25 % of control
same,T/C,"dose: 1000.0 mg/kg/injection, schedule: Q01DX011 (ip), vehicle: saline",47 % of control
same,T/C,"dose: 1000.0 mg/kg/injection, schedule: Q01DX011 (oral), vehicle: saline",43 % of control
same,T/C,"dose: 1440.0 mg/kg/injection, schedule: Q03DX004 (ip), vehicle: saline",29 % of control
same,T/C,"dose: 2000.0 mg/kg/injection, schedule: Q01DX011 (ip), vehicle: saline",40 % of control
same,T/C,"dose: 2000.0 mg/kg/injection, schedule: Q01DX011 (oral), vehicle: saline",36 % of control
same,T/C,"dose: 3000.0 mg/kg/injection, schedule: Q01DX011 (oral), vehicle: saline",56 % of control
O=C(CCBr)NCNC(=O)CCBr,T/C,"dose: 28.0 mg/kg/injection, schedule: Q01DX011 (ip), vehicle: methylcellulose (MC)",56 % of control
same,T/C,"dose: 57.0 mg/kg/injection, schedule: Q01DX011 (ip), vehicle: methylcellulose (MC)",28 % of control
Cc1ccc(Nc2nc(N)nc(C)c2Br)cc1,T/C,"dose: 15.0 mg/kg/injection, schedule: Q01DX011 (ip), vehicle: methylcellulose (MC)",98 % of control
same,T/C,"dose: 31.0 mg/kg/injection, schedule: Q01DX011 (ip), vehicle: methylcellulose (MC)",95 % of control
same,T/C,"dose: 62.0 mg/kg/injection, schedule: Q01DX011 (ip), vehicle: methylcellulose (MC)",82 % of control
same,T/C,"dose: 125.0 mg/kg/injection, schedule: Q01DX011 (ip), vehicle: methylcellulose (MC)",70 % of control
same,T/C,"dose: 250.0 mg/kg/injection, schedule: Q01DX011 (ip), vehicle: methylcellulose (MC)",83 % of control
Nc1ncc(N)c(N)n1,T/C,"dose: 30.0 mg/kg/injection, schedule: Q01DX011 (ip), vehicle: carboxymethylcellulose (CMC)",89 % of control
same,T/C,"dose: 60.0 mg/kg/injection, schedule: Q01DX011 (ip), vehicle: carboxymethylcellulose (CMC)",116 % of control
same,T/C,"dose: 120.0 mg/kg/injection, schedule: Q01DX011 (ip), vehicle: carboxymethylcellulose (CMC)",111 % of control
same,T/C,"dose: 240.0 mg/kg/injection, schedule: Q01DX011 (ip), vehicle: carboxymethylcellulose (CMC)",96 % of control
CCCCN(C)N=Nc1ccc(CCC(=O)OCC)cc1,T/C,[1],95 % of control
same,T/C,[2],38 % of control
same,T/C,[3],80 % of control
Nc1nc(N)c(N)c(Nc2ccc(Br)cc2)n1,T/C,"dose: 15.0 mg/kg/injection, schedule: Q01DX011 (ip), vehicle: saline",91 % of control
same,T/C,"dose: 31.0 mg/kg/injection, schedule: Q01DX011 (ip), vehicle: saline",32 % of control
Nc1ncnc2c1ncn2C(C=O)OC(C=O)CO (configuration not stated),T/C,"dose: 15.0 mg/kg/injection, schedule: Q01DX011 (ip), vehicle: carboxymethylcellulose (CMC)",93 % of control
